Consider ten compounds from PMC9056166 (RSC Advances, 2020).

pIC50: −log10 of the molar value. Entries after “also recorded” stand apart in the source; their conditions may differ. Marks after values point to notes of the source that are not given here.

Test [1] deals with PDE5 (Homo sapiens, UniProt O76074). As to the kind of experiment: Phosphodiesterase 5 enzyme activity assay. In kind it is biochemical. To be noted: for inhibition at 10 µM: read-out: PDE5 activity, decrease (↓, inhibition); for effect on PDE5 activity (in words): 10 μM; for PDE5 activity, increase (↑, enhancement): 10 μM compound.
In test [2] the target is T1, human recombinant COX-2 (Homo sapiens, UniProt P35354).
T1 sequence (P35354 18-604): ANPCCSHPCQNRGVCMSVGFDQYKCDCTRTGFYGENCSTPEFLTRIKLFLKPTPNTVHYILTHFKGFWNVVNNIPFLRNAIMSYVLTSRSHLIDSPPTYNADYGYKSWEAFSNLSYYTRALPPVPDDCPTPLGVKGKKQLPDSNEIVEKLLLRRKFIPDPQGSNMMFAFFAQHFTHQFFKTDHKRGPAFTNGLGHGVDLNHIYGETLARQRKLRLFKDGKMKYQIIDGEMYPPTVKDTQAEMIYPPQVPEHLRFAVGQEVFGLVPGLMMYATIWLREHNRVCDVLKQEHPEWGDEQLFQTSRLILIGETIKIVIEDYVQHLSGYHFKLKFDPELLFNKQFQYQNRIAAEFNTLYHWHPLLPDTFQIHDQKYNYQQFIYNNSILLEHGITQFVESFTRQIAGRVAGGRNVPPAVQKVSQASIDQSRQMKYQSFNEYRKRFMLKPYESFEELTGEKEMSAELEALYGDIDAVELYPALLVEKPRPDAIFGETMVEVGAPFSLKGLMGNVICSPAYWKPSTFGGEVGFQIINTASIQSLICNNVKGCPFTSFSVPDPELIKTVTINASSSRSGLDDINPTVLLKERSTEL
The experiment in a line: In vitro COX-2 inhibition, enzyme immunoassay. In kind it is biochemical. The conditions noted are these: for COX-2 S.I. (COX-1/COX-2): IC50 (COX-1)/IC50 (COX-2).

Test [3] is classed as in vivo, White New Zealand rabbits. To be noted: normotensive rabbits; for MABP: mean arterial blood pressure, i.v. (jugular vein), means ± SE, n = 4.
For test [4], the target named is T2, ovine COX-1 (Ovis aries, UniProt P05979).
T2 sequence (P05979 25-600): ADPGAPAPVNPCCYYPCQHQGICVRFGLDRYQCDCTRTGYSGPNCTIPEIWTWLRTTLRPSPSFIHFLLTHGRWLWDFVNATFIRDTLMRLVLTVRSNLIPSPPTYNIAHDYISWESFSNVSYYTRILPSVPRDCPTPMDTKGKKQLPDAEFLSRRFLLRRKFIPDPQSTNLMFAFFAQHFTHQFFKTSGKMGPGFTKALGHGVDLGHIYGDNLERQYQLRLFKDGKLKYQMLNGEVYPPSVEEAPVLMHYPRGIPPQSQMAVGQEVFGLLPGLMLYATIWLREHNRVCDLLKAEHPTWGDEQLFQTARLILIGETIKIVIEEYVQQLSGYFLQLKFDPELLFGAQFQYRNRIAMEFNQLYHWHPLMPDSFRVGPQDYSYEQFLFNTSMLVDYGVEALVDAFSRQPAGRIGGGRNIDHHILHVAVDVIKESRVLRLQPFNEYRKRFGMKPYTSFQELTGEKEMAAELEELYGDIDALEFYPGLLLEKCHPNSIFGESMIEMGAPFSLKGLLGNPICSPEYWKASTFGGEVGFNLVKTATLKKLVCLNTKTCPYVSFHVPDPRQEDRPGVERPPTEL
The experiment in a line: In vitro COX-1 inhibition, enzyme immunoassay. In kind it is biochemical.

As to `CC(=O)C(=NO)C(=O)Nc1nccs1` [Compound 2, 2-(hydroxyimino)-3-oxo-N-(thiazol-2-yl)butanamide], in test [1], the inhibition (in general, how much of the control response was suppressed) at 10 µM is 53%. In test [2], the pIC50 (as a rule, the IC50 on a negative log10 scale, so that one unit is a factor of ten) was 6.96 and the “COX-2 S.I. (COX-1/COX-2)” value is recorded as 13.64. In addition, in test [3], the MABP is 115^## and the “MABP compared with control (in words)” value is “significantly higher”. Also, the pIC50 in test [4] was 5.82.
`CCOC(=O)c1c(C)[nH]c(C(=O)Nc2nccs2)c1C` [Compound 5a, Ethyl 2,4-dimethyl-5-(thiazol-2-ylcarbamoyl)-1H-pyrrole-3-carboxylate]: in test [1], the “effect on PDE5 activity (in words)” value is “increased the PDE5 activity” and the “PDE5 activity, increase (↑, enhancement)” value was found to be 222%. For the same compound, in test [2], the pIC50 is 7.00 and the “COX-2 S.I. (COX-1/COX-2)” value was 16. In addition, in test [3], the MABP was 108^## and the “MABP compared with control (in words)” value was “significantly higher”. In test [4], the pIC50 was 5.80.
`CC(=O)c1c(C)[nH]c(C(=O)Nc2nccs2)c1C` [Compound 5b, 4-Acetyl-3,5-dimethyl-N-(thiazol-2-yl)-1H-pyrrole-2-carboxamide]: in test [1], the “effect on PDE5 activity (in words)” value is “very low activity” and the “PDE5 activity, increase (↑, enhancement)” value is listed as 15%. In addition, in test [2], the negative-log IC50 (pIC50) was 6.62 and the “COX-2 S.I. (COX-1/COX-2)” value came out at 5.4. Further, in test [3], the MABP was 98 and the “MABP compared with control (in words)” value was “higher than the control values in a nonsignificant manner”. This compound showed a pIC50 in test [4] of 5.89.
Take `Cc1cc(O)n(-c2nccs2)n1` [Compound 7, 3-methyl-1-(thiazol-2-yl)-1H-pyrazol-5-ol]: the inhibition at 10 µM in test [1] was found to be 75%. In addition, in test [2], the pIC50 is 6.20 and the “COX-2 S.I. (COX-1/COX-2)” value is given as 10.06. In test [3], the MABP is on record as 81^#, the “MABP compared with control (in words)” value is reported as “significantly lower than that of the control” and the “MABP compared with sildenafil (in words)” value is “insignificantly higher than the sildenafil one”. Further, in test [4], the pIC50 is 5.20.
Regarding `CCOC(=O)CCC(=O)Nc1nccs1` [Compound 11, ethyl 4-oxo-4-(thiazol-2-ylamino)butanoate], in test [1], the “effect on PDE5 activity (in words)” value is “very low activity” and the “PDE5 activity, increase (↑, enhancement)” value was 3.5%. Besides, in test [2], the pIC50 is 6.68 and the “COX-2 S.I. (COX-1/COX-2)” value turned out to be 8.1. Further, in test [3], the MABP was 85^&, the “MABP compared with control (in words)” value is recorded as “insignificantly lower than the control values” and the “MABP compared with sildenafil (in words)” value is listed as “significantly higher than the sildenafil values”. In test [4], this compound had a pIC50 of 5.77.
`CC(=O)C(C(C)=O)C(=O)Nc1nccs1` [Compound 17, 2-acetyl-3-oxo-N-(thiazol-2-yl)butanamide]: in test [1], the “effect on PDE5 activity (in words)” value is “increased the PDE5 activity” and the “PDE5 activity, increase (↑, enhancement)” value amounted to 371%. For the same compound, in test [2], the pIC50 is 7.05 and the “COX-2 S.I. (COX-1/COX-2)” value was determined as 15.56. In test [3], the MABP is 87^&, the “MABP compared with control (in words)” value is recorded as “insignificantly lower than the control values” and the “MABP compared with sildenafil (in words)” value is “significantly higher than the sildenafil values”. The same compound showed a pIC50 in test [4] of 5.85.
For `C/C(=C/C(=O)Nc1nccs1)Nc1ccccc1` [Compound 23a, (Z)-3-(phenylamino)-N-(thiazol-2-yl)but-2-enamide], the inhibition at 10 µM in test [1] was 100%. In test [2], the pIC50 was 6.15 and the “COX-2 S.I. (COX-1/COX-2)” value was found to be 8.87. In test [3], the MABP came to 108 and the “MABP compared with control (in words)” value is “without causing hypotension; also recorded: higher than the control values in a nonsignificant manner; also recorded: without a notable decrease in MABP”. Also, the pIC50 in test [4] is 5.20.
Consider `COc1ccc(N/C(C)=C\C(=O)Nc2nccs2)cc1` [Compound 23b, (Z)-3-((4-methoxyphenyl)amino)-N-(thiazol-2-yl)but-2-en-amide], for which, in test [1], the “effect on PDE5 activity (in words)” value is “increased the PDE5 activity; also recorded: very low activity”; the “PDE5 activity, increase (↑, enhancement)” value was 15%; the inhibition at 10 µM worked out at 100%. Also, in test [2], the pIC50 was 6.25 and the “COX-2 S.I. (COX-1/COX-2)” value is 10.25. Also, in test [3], the MABP is reported as 110^## and the “MABP compared with control (in words)” value is on record as “significantly higher; also recorded: without a notable decrease in MABP”. The pIC50 in test [4] is 5.24.
As for `C/C(=C/C(=O)Nc1nccs1)Nc1ccc(Cl)cc1` [Compound 23c, (Z)-3-((4-chlorophenyl)amino)-N-(thiazol-2-yl)but-2-enamide], in test [1], the inhibition at 10 µM was 100%. Moreover, in test [2], the pIC50 was 6.21 and the “COX-2 S.I. (COX-1/COX-2)” value is 10.38. In test [3], the MABP stood at 100 and the “MABP compared with control (in words)” value is on record as “without causing hypotension; also recorded: higher than the control values in a nonsignificant manner”. In test [4], this compound gave a pIC50 of 5.20.
For `CCCc1nn(C)c2c(=O)[nH]c(-c3cc(S(=O)(=O)N4CCN(C)CC4)ccc3OCC)nc12` [Sildenafil, sildenafil, reference compound], the inhibition at 10 µM in test [1] worked out at 100%. The same compound yielded an MABP in test [3] of 72.50 ± 2.9.
